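The concentration for 50% growth inhibition is given as GI50. TGI: concentration producing complete growth inhibition.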
What was measured:
Test in all cases: DTP human tumour cell line panel, 384-well format
U251 glioblastoma = test system: U251 glioblastoma
BT-549 breast = test system: BT-549 breast
SNB-19 CNS = test system: SNB-19 CNS
NCI-H522 lung = test system: NCI-H522 lung
HCT-116 colon = test system: HCT-116 colon
MDA-MB-468 breast = test system: MDA-MB-468 breast
T-47D breast = test system: T-47D breast
HL-60(TB) leukemia = test system: HL-60(TB) leukemia
PC-3 prostate = test system: PC-3 prostate
KM12 colon = test system: KM12 colon
DU-145 prostate = test system: DU-145 prostate
UO-31 renal = test system: UO-31 renal
NCI-H322M lung = test system: NCI-H322M lung
A549 NSCLC = test system: A549 NSCLC
SK-OV-3 ovarian = test system: SK-OV-3 ovarian
HS 578T breast = test system: HS 578T breast
SK-MEL-28 melanoma = test system: SK-MEL-28 melanoma
A498 renal = test system: A498 renal
HT29 colon = test system: HT29 colon
RPMI-8226 leukemia = test system: RPMI-8226 leukemia
OVCAR-8 ovarian = test system: OVCAR-8 ovarian
786-0 renal = test system: 786-0 renal
MDA-MB-435 melanoma = test system: MDA-MB-435 melanoma
IGROV1 ovarian = test system: IGROV1 ovarian
SF-268 CNS = test system: SF-268 CNS
M14 melanoma = test system: M14 melanoma
MOLT-4 leukemia = test system: MOLT-4 leukemia
SR leukemia = test system: SR leukemia
MALME-3M melanoma = test system: MALME-3M melanoma
MDA-MB-231 breast = test system: MDA-MB-231 breast
TK-10 renal = test system: TK-10 renal
MCF7 breast = test system: MCF7 breast
SF-295 CNS = test system: SF-295 CNS
UACC-257 melanoma = test system: UACC-257 melanoma
RXF 393 renal = test system: RXF 393 renal
NCI-H23 lung = test system: NCI-H23 lung
SW-620 colon = test system: SW-620 colon
COLO 205 colon = test system: COLO 205 colon
NCI-H226 lung = test system: NCI-H226 lung
OVCAR-3 ovarian = test system: OVCAR-3 ovarian
UACC-62 melanoma = test system: UACC-62 melanoma
HOP-62 NSCLC = test system: HOP-62 NSCLC
SN12C renal = test system: SN12C renal
SNB-75 CNS = test system: SNB-75 CNS
HCC-2998 colon = test system: HCC-2998 colon
NCI-H460 NSCLC = test system: NCI-H460 NSCLC
CCRF-CEM leukemia = test system: CCRF-CEM leukemia
SF-539 CNS = test system: SF-539 CNS
HOP-92 NSCLC = test system: HOP-92 NSCLC
OVCAR-4 ovarian = test system: OVCAR-4 ovarian
ACHN renal = test system: ACHN renal
HCT-15 colon = test system: HCT-15 colon
LOX IMVI melanoma = test system: LOX IMVI melanoma
NCI/ADR-RES ovarian = test system: NCI/ADR-RES ovarian
CAKI-1 renal = test system: CAKI-1 renal

`CNC(=O)c1nn(C)c2c1C(C)(C)Cc1cnc(Nc3cccc(N4CCN(C)CC4)c3)nc1-2` was tested, and the GI50 (U251 glioblastoma) was 0.437 µM, the TGI (U251 glioblastoma) was 12.7 µM and the GI50 (BT-549 breast) was 0.276 µM. The TGI (BT-549 breast) was 2.04 µM, the GI50 (SNB-19 CNS) was 0.414 µM and the TGI (SNB-19 CNS) was 24.1 µM. It also gave a GI50 (NCI-H522 lung) of 0.153 µM, a TGI (NCI-H522 lung) of 0.436 µM and a GI50 (HCT-116 colon) of 0.123 µM. It also gave a TGI (HCT-116 colon) of 11.7 µM, a GI50 (MDA-MB-468 breast) of 0.463 µM and a TGI (MDA-MB-468 breast) of 1.83 µM. It also gave a GI50 (T-47D breast) of 1.61 µM, a TGI (T-47D breast) of 13.5 µM and a GI50 (HL-60(TB) leukemia) of 0.0842 µM. It also gave a TGI (HL-60(TB) leukemia) of 1.63 µM, a GI50 (PC-3 prostate) of 0.185 µM and a TGI (PC-3 prostate) of 11.2 µM. It also gave a GI50 (KM12 colon) of 0.0337 µM, a TGI (KM12 colon) of 10.6 µM and a GI50 (DU-145 prostate) of 0.522 µM. For the same compound, the TGI (DU-145 prostate) was 10.5 µM, the GI50 (UO-31 renal) was 0.235 µM and the TGI (UO-31 renal) was 2.19 µM. The GI50 (NCI-H322M lung) was 0.523 µM, the TGI (NCI-H322M lung) was 11.2 µM and the GI50 (A549 NSCLC) was 0.278 µM. For the same compound, the TGI (A549 NSCLC) was 12.8 µM, the GI50 (SK-OV-3 ovarian) was 0.0422 µM and the TGI (SK-OV-3 ovarian) was 1.29 µM. The GI50 (HS 578T breast) was 0.148 µM, the TGI (HS 578T breast) was 1.31 µM and the GI50 (SK-MEL-28 melanoma) was 1.08 µM. The TGI (SK-MEL-28 melanoma) was 4.01 µM, the GI50 (A498 renal) was 0.0466 µM and the TGI (A498 renal) was 12.3 µM. For the same compound, the GI50 (HT29 colon) was 0.886 µM, the TGI (HT29 colon) was 3.76 µM and the GI50 (RPMI-8226 leukemia) was 0.0954 µM. For the same compound, the TGI (RPMI-8226 leukemia) was 0.253 µM, the GI50 (OVCAR-8 ovarian) was 1.45 µM and the TGI (OVCAR-8 ovarian) was 17.1 µM. The GI50 (786-0 renal) was 0.309 µM, the TGI (786-0 renal) was 10.9 µM and the GI50 (MDA-MB-435 melanoma) was 0.612 µM. The TGI (MDA-MB-435 melanoma) was 11.3 µM, the GI50 (IGROV1 ovarian) was 0.0624 µM and the TGI (IGROV1 ovarian) was 0.616 µM. For the same compound, the GI50 (SF-268 CNS) was 0.536 µM, the TGI (SF-268 CNS) was 2.27 µM and the GI50 (M14 melanoma) was 0.124 µM. For the same compound, the TGI (M14 melanoma) was 3.59 µM, the GI50 (MOLT-4 leukemia) was 0.13 µM and the TGI (MOLT-4 leukemia) was 0.317 µM. For the same compound, the TGI (SR leukemia) was 0.0573 µM, the GI50 (MALME-3M melanoma) was 0.253 µM and the TGI (MALME-3M melanoma) was 2.03 µM. It also gave a GI50 (MDA-MB-231 breast) of 0.251 µM, a TGI (MDA-MB-231 breast) of 43.6 µM and a GI50 (TK-10 renal) of 0.336 µM. It also gave a TGI (TK-10 renal) of 10.4 µM, a GI50 (MCF7 breast) of 0.345 µM and a TGI (MCF7 breast) of 11.4 µM. For the same compound, the GI50 (SF-295 CNS) was 0.375 µM, the TGI (SF-295 CNS) was 3.9 µM and the GI50 (UACC-257 melanoma) was 1.16 µM. It also gave a TGI (UACC-257 melanoma) of 4.3 µM, a GI50 (RXF 393 renal) of 0.122 µM and a TGI (RXF 393 renal) of 2.14 µM. It also gave a GI50 (NCI-H23 lung) of 0.157 µM, a TGI (NCI-H23 lung) of 0.895 µM and a GI50 (SW-620 colon) of 0.391 µM. For the same compound, the TGI (SW-620 colon) was 12.6 µM, the GI50 (COLO 205 colon) was 0.416 µM and the TGI (COLO 205 colon) was 9.35 µM. It also gave a GI50 (NCI-H226 lung) of 0.251 µM, a TGI (NCI-H226 lung) of 4.6 µM and a GI50 (OVCAR-3 ovarian) of 0.167 µM. It also gave a TGI (OVCAR-3 ovarian) of 0.741 µM, a GI50 (UACC-62 melanoma) of 0.206 µM and a TGI (UACC-62 melanoma) of 2.26 µM. For the same compound, the GI50 (HOP-62 NSCLC) was 0.357 µM, the TGI (HOP-62 NSCLC) was 7.18 µM and the GI50 (SN12C renal) was 0.198 µM. For the same compound, the TGI (SN12C renal) was 1.74 µM, the GI50 (SNB-75 CNS) was 0.216 µM and the TGI (SNB-75 CNS) was 2.17 µM. For the same compound, the GI50 (HCC-2998 colon) was 0.433 µM, the TGI (HCC-2998 colon) was 6.56 µM and the GI50 (NCI-H460 NSCLC) was 0.0893 µM. The TGI (NCI-H460 NSCLC) was 5.35 µM, the GI50 (CCRF-CEM leukemia) was 0.252 µM and the TGI (CCRF-CEM leukemia) was 1.21 µM. For the same compound, the GI50 (SF-539 CNS) was 0.405 µM, the TGI (SF-539 CNS) was 3.42 µM and the GI50 (HOP-92 NSCLC) was 0.199 µM. The TGI (HOP-92 NSCLC) was > 100 µM, the GI50 (OVCAR-4 ovarian) was 2.26 µM and the TGI (OVCAR-4 ovarian) was 10.6 µM.

`O=C(CCBr)N1CCN(C(=O)CCBr)CC1` showed a GI50 (U251 glioblastoma) of 24 µM, a GI50 (BT-549 breast) of 40 µM and a GI50 (SNB-19 CNS) of 63 µM. The GI50 (NCI-H522 lung) was 32.7 µM, the GI50 (HCT-116 colon) was 26.5 µM and the GI50 (MDA-MB-468 breast) was 9.42 µM. The TGI (MDA-MB-468 breast) was 49 µM, the GI50 (HL-60(TB) leukemia) was 2.06 µM and the TGI (HL-60(TB) leukemia) was 5.92 µM. For the same compound, the GI50 (PC-3 prostate) was 82 µM, the GI50 (KM12 colon) was 88.1 µM and the GI50 (DU-145 prostate) was 21.6 µM. For the same compound, the GI50 (UO-31 renal) was 74.1 µM, the GI50 (A549 NSCLC) was 57.6 µM and the GI50 (SK-OV-3 ovarian) was 45.2 µM. The GI50 (HS 578T breast) was 22.5 µM, the GI50 (A498 renal) was 70.1 µM and the GI50 (HT29 colon) was 91.5 µM. It also gave a GI50 (RPMI-8226 leukemia) of 17 µM, a GI50 (ACHN renal) of 24.6 µM and a TGI (ACHN renal) of 87.4 µM. For the same compound, the GI50 (OVCAR-8 ovarian) was 37.2 µM, the GI50 (786-0 renal) was 33.1 µM and the GI50 (HCT-15 colon) was 40.8 µM. For the same compound, the GI50 (SF-268 CNS) was 13.7 µM, the GI50 (M14 melanoma) was 25.8 µM and the GI50 (MOLT-4 leukemia) was 1.61 µM. For the same compound, the TGI (MOLT-4 leukemia) was 3 µM, the GI50 (MALME-3M melanoma) was 98.8 µM and the GI50 (MCF7 breast) was 30.9 µM. The GI50 (SF-295 CNS) was 21.8 µM, the TGI (SF-295 CNS) was 64.9 µM and the GI50 (RXF 393 renal) was 44.4 µM. For the same compound, the GI50 (NCI-H23 lung) was 34.7 µM, the GI50 (SW-620 colon) was 87.6 µM and the GI50 (NCI-H226 lung) was 56.3 µM. It also gave a GI50 (OVCAR-3 ovarian) of 41.5 µM, a GI50 (UACC-62 melanoma) of 15.1 µM and a GI50 (HOP-62 NSCLC) of 13.6 µM. It also gave a TGI (HOP-62 NSCLC) of 42.3 µM, a GI50 (SN12C renal) of 18.3 µM and a GI50 (SNB-75 CNS) of 20.9 µM. For the same compound, the GI50 (LOX IMVI melanoma) was 39.9 µM, the GI50 (CCRF-CEM leukemia) was 11.4 µM and the TGI (CCRF-CEM leukemia) was 24.2 µM. The GI50 (NCI/ADR-RES ovarian) was 52.2 µM, the GI50 (SF-539 CNS) was 24 µM and the TGI (SF-539 CNS) was 99 µM. For the same compound, the GI50 (CAKI-1 renal) was 33.3 µM.

From PubChem BioAssay (NCI)
